The record followed here is patent US8664379B2, “Fused heterocyclic compounds as ion channel modulators” (Gilead Sciences, Inc., priority 2008, dated 2014).

This assay concerns the target wild-type human cardiac sodium channel, hNav1.5 (late sodium current) (Homo sapiens, UniProt Q14524). The assay is described as follows: Late INa screening assay (PatchXpress whole cell patch clamp). The assay is classed as cell-based. Conditions: HEK293, 10 μM test compound; HEK293 cells expressing hNav1.5; late INa generated with 10 μM Tefluthrin (some experiments 50 nM ATX II); read-out: Late INa % blk (10 μM test cmpd). On the procedure: The late sodium current (Late INa) and peak sodium current (Peak INa) assays were performed on an automated electrophysiology platform, PatchXpress 7000A (MDS Analytical Technologies, Sunnyvale, Calif.), which uses the whole cell patch clamp technique to measure currents through the cell membrane of up to 16 cells at a time. The assay used an HEK293 (human embryonic kidney) cell line heterologously expressing the wild-type human cardiac sodium channel, hNav1.5, purchased from Millipore (Billerica, Mass.). No beta subunits were coexpressed with the Na channel alpha subunit. Cells were maintained with standard tissue culture procedures and stable channel expression was maintained with 400 μg/ml Geneticin in the culture medium. Cells isolated for use on PatchXpress were incubated for 5 minutes in Versene 1× and then for 2 minutes in 0.0125% Trypsin-EDTA (both at 37° C.) to ensure that 80-90% of the cells are single and not part of a cell cluster. Experiments were carried out at 24-27° C.
For both the Late INa and Peak INa assays, series resistance compensation was set to 50% and whole-cell compensation was performed automatically. Currents were low-pass filtered at 10 kHz and digitized at 31.25 kHz. Currents through open sodium channels were automatically recorded and stored in the DataXpress2 database (MDS Analytical Technologies, Sunnyvale, Calif.). Analysis was performed using DataXpress2 analysis software and data are compiled in Excel.
Compound stocks were routinely made in glass vials to 10 mM in dimethyl sulfoxide (DMSO). In some cases, when compounds were not soluble in DMSO, they were made in 100% ethanol. Stocks were sonicated as necessary. The extracellular solution for screening Late INa was composed of: 140 mM NaCl, 4 mM KCl, 1.8 mM CaCl2, 0.75 mM MgCl2, and 5 mM HEPES with pH adjusted to 7.4 using NaOH. The extracellular solution for screening Peak INa was composed of: 20 mM NaCl, 120 mM N-methyl-D glucamine, 4 mM KCl, 1.8 mM CaCl2, 0.75 mM MgCl2, and 5 mM HEPES with pH adjusted to 7.4 using HCl. The intracellular solution used to perfuse the inside of the cells for both the Late INa and Peak INa assays contains: 120 mM CsF, 20 mM CsCl, 5 mM EGTA, 5 mM HEPES and pH adjusted to 7.4 with CsOH. Compounds were diluted in extracellular solution to 10 μM in glass vials and then transferred to glass well plates before robotic addition to the cells. The 0Na extracellular solution used at the end of each experiment for the Late INa and Peak INa assays to measure baseline current contained: 140 mM N-methyl-D-glucamine; 4 mM KCl; 1.8 mM CaCl2; 0.75 mM MgCl2; 5 mM HEPES and pH was adjusted to 7.4 with HCl.
For the Late INa assay, sodium channels were activated every 10 seconds (0.1 Hz) by depolarizing the cell membrane to −20 mV for 250 milliseconds (ms) from a holding potential of −120 mV. In response to a −20 mV voltage step, typical Nav1.5 sodium currents activated rapidly to a peak negative current and then inactivated nearly completely within 3-4 ms.
All compounds were tested to determine their activity in blocking the late sodium current. Late INa current is generated by adding 10 μM Tefluthrin (pyrethroid) to the extracellular solution while recording Na currents. For some experiments, 50 nM ATX II (sea anemone toxin), another late INa activator, was used to generate the late component. Both activators generate late components that are large enough that block of the late component by compounds can be measured easily. For the purposes of the screening, late INa is defined as the mean current between 225 ms and 250 ms after stepping to −20 mV to activate Na channels. After establishing the whole cell recording configuration, late INa activators were added to each well 4 times over a 16-17 minute period so that the late component of the Na current reached a stable value. Compounds were then added (typically at 10 μM), in the presence of late INa activator, with 3 additions over the course of 7 or 8 minutes. […]

Molecules are shown by their SMILES.

Chain of wild-type human cardiac sodium channel, hNav1.5 (late sodium current) (Q14524 whole entry): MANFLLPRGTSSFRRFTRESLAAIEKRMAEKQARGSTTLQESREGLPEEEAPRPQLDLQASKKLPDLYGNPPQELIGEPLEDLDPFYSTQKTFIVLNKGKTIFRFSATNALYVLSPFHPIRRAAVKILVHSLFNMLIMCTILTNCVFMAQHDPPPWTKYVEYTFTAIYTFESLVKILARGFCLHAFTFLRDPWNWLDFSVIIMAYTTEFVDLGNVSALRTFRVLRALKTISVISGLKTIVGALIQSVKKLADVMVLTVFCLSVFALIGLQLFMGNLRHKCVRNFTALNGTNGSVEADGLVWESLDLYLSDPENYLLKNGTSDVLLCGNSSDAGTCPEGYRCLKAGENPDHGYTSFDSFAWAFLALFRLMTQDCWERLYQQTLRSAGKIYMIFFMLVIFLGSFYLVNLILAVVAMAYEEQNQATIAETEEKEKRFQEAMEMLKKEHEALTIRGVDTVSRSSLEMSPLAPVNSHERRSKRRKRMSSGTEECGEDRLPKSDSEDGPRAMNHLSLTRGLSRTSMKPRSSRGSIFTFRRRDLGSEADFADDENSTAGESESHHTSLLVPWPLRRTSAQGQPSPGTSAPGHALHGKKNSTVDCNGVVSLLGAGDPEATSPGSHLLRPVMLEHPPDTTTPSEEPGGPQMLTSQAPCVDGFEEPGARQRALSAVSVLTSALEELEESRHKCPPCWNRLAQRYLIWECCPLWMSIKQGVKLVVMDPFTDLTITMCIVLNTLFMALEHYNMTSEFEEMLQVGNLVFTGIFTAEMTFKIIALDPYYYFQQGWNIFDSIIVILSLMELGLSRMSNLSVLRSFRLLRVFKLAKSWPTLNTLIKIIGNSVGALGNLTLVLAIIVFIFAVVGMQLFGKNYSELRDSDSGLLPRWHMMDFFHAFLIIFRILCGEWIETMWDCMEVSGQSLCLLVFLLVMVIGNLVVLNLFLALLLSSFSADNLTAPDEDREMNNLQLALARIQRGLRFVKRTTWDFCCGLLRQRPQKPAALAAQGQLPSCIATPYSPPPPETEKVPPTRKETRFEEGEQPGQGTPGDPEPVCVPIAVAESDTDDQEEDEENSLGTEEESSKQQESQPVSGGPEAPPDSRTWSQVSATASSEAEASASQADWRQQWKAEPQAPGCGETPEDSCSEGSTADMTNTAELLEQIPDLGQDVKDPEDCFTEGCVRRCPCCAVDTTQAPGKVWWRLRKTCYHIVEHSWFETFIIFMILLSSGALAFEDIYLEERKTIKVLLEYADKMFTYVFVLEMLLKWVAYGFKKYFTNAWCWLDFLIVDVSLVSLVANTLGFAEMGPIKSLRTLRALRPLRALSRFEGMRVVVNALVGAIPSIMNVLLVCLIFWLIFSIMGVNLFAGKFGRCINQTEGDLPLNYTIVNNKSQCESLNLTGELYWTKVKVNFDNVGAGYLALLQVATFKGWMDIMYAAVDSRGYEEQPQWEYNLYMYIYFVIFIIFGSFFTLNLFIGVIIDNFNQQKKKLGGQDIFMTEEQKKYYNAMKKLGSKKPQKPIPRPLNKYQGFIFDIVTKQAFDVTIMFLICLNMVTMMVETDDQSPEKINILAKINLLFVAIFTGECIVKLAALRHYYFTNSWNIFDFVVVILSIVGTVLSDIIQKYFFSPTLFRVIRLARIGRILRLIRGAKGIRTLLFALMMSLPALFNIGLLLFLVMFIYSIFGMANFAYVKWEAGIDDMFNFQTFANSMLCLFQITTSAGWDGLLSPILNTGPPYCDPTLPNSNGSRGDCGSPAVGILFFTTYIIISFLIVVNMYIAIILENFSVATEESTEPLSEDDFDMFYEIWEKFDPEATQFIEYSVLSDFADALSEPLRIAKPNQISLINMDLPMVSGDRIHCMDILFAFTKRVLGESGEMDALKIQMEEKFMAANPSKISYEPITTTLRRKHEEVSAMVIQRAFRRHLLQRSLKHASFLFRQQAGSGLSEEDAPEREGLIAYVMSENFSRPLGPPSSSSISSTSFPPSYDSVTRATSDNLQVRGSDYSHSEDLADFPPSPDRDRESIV

`CC(C)(C)OC(=O)CN1C(=O)CCc2cc(-c3cccc(Cl)c3)ccc21` [Compound 53, tert-butyl [6-(3-chlorophenyl)-2-oxo-3,4-dihydroquinolin-1(2H)-yl]acetate]: the inhibition at 10 µM was determined as 73%. Next, `CCOC(=O)CN1C(=O)CCc2cc(-c3ccc(C(F)(F)F)cc3)ccc21` [Compound 54, ethyl {2-oxo-6-[4-(trifluoromethyl)phenyl]-3,4-dihydroquinolin-1(2H)-yl}acetate]: 13%. Next, `NC(=O)CN1C(=O)CCc2cc(-c3ccc(F)cc3F)ccc21` [Compound 55, 2-[6-(2,4-difluorophenyl)-2-oxo-3,4-dihydroquinolin-1(2H)-yl]acetamide]: 14%; `NC(=O)CN1C(=O)CCc2cc(-c3ccc(C(F)(F)F)cc3)ccc21` [Compound 56, 2-{2-oxo-6-[4-(trifluoromethyl)phenyl]-3,4-dihydroquinolin-1(2H)-yl}acetamide]: 14%; `O=C(O)CN1C(=O)CCc2cc(-c3cccc(F)c3)ccc21` [Compound 59, [6-(3-fluorophenyl)-2-oxo-3,4-dihydroquinolin-1(2H)-yl]acetic acid]: 10%.

As for `CC(C)(C)OC(=O)CN1C(=O)CCc2cc(-c3ccc(Oc4ccccc4)cc3)ccc21` [Compound 66, tert-butyl [2-oxo-6-(4-phenoxyphenyl)-3,4-dihydroquinolin-1(2H)-yl]acetate], the inhibition at 10 µM came to 27%. For the compound `CC(C)(C)OC(=O)CN1C(=O)CCc2cc(-c3ccc(Cl)c(C(F)(F)F)c3)ccc21` [Compound 67, tert-butyl {6-[4-chloro-3-(trifluoromethyl)phenyl]-2-oxo-3,4-dihydroquinolin-1(2H)-yl}acetate], the inhibition at 10 µM was 74%. Next, `O=C(O)CN1C(=O)CCc2cc(-c3ccc(Cl)cc3)ccc21` [Compound 68, [6-(4-chlorophenyl)-2-oxo-3,4-dihydroquinolin-1(2H)-yl]acetic acid]: 23%; `O=C(O)CN1C(=O)CCc2cc(-c3ccc(C(F)(F)F)c(F)c3)ccc21` [Compound 74, 2-(6-(3-fluoro-4-(trifluoromethyl)phenyl)-2-oxo-3,4-dihydroquinolin-1(2H)-yl)acetic acid]: 20%. Next, `COc1cc2c(cc1-c1ccc(Cl)cc1)CCC(=O)N2` [Compound 77, 6-(4-chlorophenyl)-7-methoxy-3,4-dihydroquinolin-2(1H)-one]: 72%; `COc1c(-c2ccc(Cl)cc2)cc2c(c1Br)NC(=O)CC2` [Compound 78, 8-bromo-6-(4-chlorophenyl)-7-methoxy-3,4-dihydroquinolin-2(1H)-one]: 34%. Next, `COc1cc2c(cc1-c1ccc(C(F)(F)F)cc1)CCC(=O)N2CC(=O)O` [Compound 79, 2-(7-methoxy-2-oxo-6-(4-(trifluoromethyl)phenyl)-3,4-dihydroquinolin-1(2H)-yl)acetic acid]: 12%; `COc1cc2c(cc1-c1ccc(Cl)cc1)CCC(=O)N2CC(=O)O` [Compound 80, 2-(6-(4-chlorophenyl)-7-methoxy-2-oxo-3,4-dihydroquinolin-1(2H)-yl)acetic acid]: 17%; `COc1c(-c2ccc(Cl)cc2)cc2c(c1-c1ccc(Cl)cc1)N(CC(=O)O)C(=O)CC2` [Compound 81, 2-(6,8-bis(4-chlorophenyl)-7-methoxy-2-oxo-3,4-dihydroquinolin-1(2H)-yl)acetic acid]: 30%.

Take `COc1cc2c(cc1-c1ccc(C(F)(F)F)c(F)c1)CCC(=O)N2` [Compound 82, 6-(3-fluoro-4-(trifluoromethyl)phenyl)-7-methoxy-3,4-dihydroquinolin-2(1H)-one]: the inhibition at 10 µM was 54%. Then `O=C(O)c1ccc(CN2C(=O)CCc3cc(-c4ccc(C(F)(F)F)cc4)ccc32)cc1` [Compound 86, 4-((2-oxo-6-(4-(trifluoromethyl)phenyl)-3,4-dihydroquinolin-1(2H)-yl)methyl)benzoic acid], with 13%; and `COC(=O)c1ccc(CN2C(=O)CCc3cc(-c4ccc(C(F)(F)F)cc4)ccc32)cc1` [Compound 87, methyl 4-((2-oxo-6-(4-(trifluoromethyl)phenyl)-3,4-dihydroquinolin-1(2H)-yl)methyl)benzoate], with 20%; and `COc1ccccc1OCC(O)CN1C(=O)CCc2cc(-c3ccc(F)cc3F)ccc21` (centres unmarked) [Compound 88, 6-(2,4-difluorophenyl)-1-(2-hydroxy-3-(2-methoxyphenoxy)propyl)-3,4-dihydroquinolin-2(1H)-one], with 40%.

For the compound `N#CCN1C(=O)CCc2cc(-c3ccc(C(F)(F)F)cc3)ccc21` [Compound 90, 2-(2-oxo-6-(4-(trifluoromethyl)phenyl)-3,4-dihydroquinolin-1(2H)-yl)acetonitrile], the inhibition at 10 µM turned out to be 22%. Take `CCOC(=O)c1cccc(CN2C(=O)CCc3cc(-c4ccc(C(F)(F)F)cc4)ccc32)c1` [Compound 91, ethyl 3-((2-oxo-6-(4-(trifluoromethyl)phenyl)-3,4-dihydroquinolin-1(2H)-yl)methyl)benzoate]: the inhibition at 10 µM worked out at 31%.
